In PubChem BioAssay (NCI):
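In this assay, cells in 96-well plates receive the compound at five concentrations for 48 hours. Endpoints are linearly interpolated between the surrounding concentrations. Abbreviation: GI50, concentration required for 50% inhibition of growth. TGI is the concentration that stops growth completely.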 Where a SMILES comes first, the peptide text is derived from it. [ ]: non-standard residue; d: D form. The star is where a group is joined. Phe(4-NO2) = N[CH](Cc1ccc([N+](=O)[O-])cc1)C(=O)O; Boc = CC(C)(C)OC(=O)*

Columns and labels:
Assay in all cases: NCI tumour cell line growth inhibition, 48 h
M14 melanoma = system: M14 melanoma
MDA-MB-435 = system: MDA-MB-435
UACC-257 melanoma = system: UACC-257 melanoma
HOP-62 NSCLC = system: HOP-62 NSCLC
ACHN renal = system: ACHN renal
SK-MEL-5 melanoma = system: SK-MEL-5 melanoma
IGROV1 ovarian = system: IGROV1 ovarian
MDA-N = system: MDA-N
K-562 leukemia = system: K-562 leukemia
RXF 393 renal = system: RXF 393 renal

| SMILES | TGI (M14 melanoma) [µM] | TGI (MDA-MB-435) [µM] | TGI (UACC-257 melanoma) [µM] | TGI (HOP-62 NSCLC) [µM] | TGI (ACHN renal) [µM] | TGI (SK-MEL-5 melanoma) [µM] | TGI (IGROV1 ovarian) [µM] | TGI (MDA-N) [µM] | TGI (K-562 leukemia) [µM] | TGI (RXF 393 renal) [µM] | GI50 (M14 melanoma) [µM] | GI50 (MDA-MB-435) [µM] | GI50 (UACC-257 melanoma) [µM] | GI50 (HOP-62 NSCLC) [µM] | GI50 (ACHN renal) [µM] | GI50 (K-562 leukemia) [µM] | GI50 (IGROV1 ovarian) [µM] |
| --- | --- | --- | --- | --- | --- | --- | --- | --- | --- | --- | --- | --- | --- | --- | --- | --- | --- |
| O=C(NNC(=S)NC1CCCCC1)c1csc(NC(=S)NC2CCCCC2)n1 | 16.1 | 26.6 | 11.8 | 35.2 | 15.3 | 8.79 | 26.6 | – | – | – | – | – | – | – | – | – | – |
| CCOC(=O)NC(Nc1ccc(C(=O)OCC)cc1)(C(F)(F)F)C(F)(F)F | > 100 | > 100 | – | > 100 | > 100 | > 100 | > 100 | > 100 | > 100 | – | – | – | – | – | – | – | – |
| COc1cc(/C=C/C(=O)C2(C(=O)/C=C/c3cc(OC)c(OC)c(OC)c3)CCCCC2)cc(OC)c1OC | 81.7 | 42.5 | > 100 | > 100 | > 100 | > 100 | > 100 | – | > 100 | – | – | – | – | – | – | – | – |
| CC(=O)OCC1OC(n2c(-c3ccc(C)cc3)cc(-c3ccccc3)c(C#N)c2=S)C(OC(C)=O)C(OC(C)=O)C1OC(C)=O (stereo not given) | > 100 | > 100 | – | > 100 | > 100 | > 100 | > 100 | > 100 | > 100 | > 100 | – | – | – | – | – | – | – |
| Cc1cc2c([nH]c3ccccc32)c2c1OC(C)(C)C1C3CC(C)(C)Oc4c(C)cc5c6ccccc6n(c5c43)C21 (stereo not given) | > 100 | – | > 100 | > 100 | > 100 | > 100 | > 100 | – | > 100 | > 100 | – | – | – | – | – | – | – |
| Nn1c(Cc2ccc([N+](=O)[O-])cc2)n[nH]c1=O | > 100 | > 100 | > 100 | > 100 | > 100 | > 100 | > 100 | > 100 | > 100 | – | – | – | – | – | – | – | – |
| CCC(C#N)NCc1cccc(CNC(C#N)CC)c1 (stereo not given) | 31.4 | > 100 | > 100 | – | > 100 | > 100 | > 100 | > 100 | > 100 | – | – | – | – | – | – | – | – |
| NC(=S)N/N=C\c1nccc2ccccc12 | 2.42 | > 100 | > 58.6 | – | 0.317 | 3.7 | 17.4 | > 100 | > 50 | – | – | – | – | – | – | – | – |
| COc1ccc(SCc2cc(OCc3ccccc3)c(OCc3ccccc3)c(OCc3ccccc3)c2)cc1 | 3.57 | 3.33 | 3.09 | – | 3.1 | – | 3.34 | 3.29 | 2.62 | – | – | – | – | – | – | – | – |
| CC1(C)C2C=CC1C(=O)CC2 (stereo not given) | > 100 | – | > 100 | > 100 | > 100 | > 100 | – | – | > 100 | > 100 | – | – | – | – | – | – | – |
| O=C1c2ccc(O)c(O)c2C(=O)c2c(O)ccc(O)c21 | 54 | – | 49.3 | 65.4 | 52.5 | – | > 100 | – | 70.9 | 55.2 | – | – | – | – | – | – | – |
| Cc1ccc2c(c1)-c1nc(N)c(C#N)c(-c3ccccc3)c1CCS2(=O)=O | > 100 | > 100 | > 100 | > 100 | > 100 | > 100 | > 100 | > 100 | > 100 | – | – | – | – | – | – | – | – |
| C=C1C2C[C@@H]3O[C@H]4C[C@H]5O[C@@]6(C[C@@H]7O[C@]8(C[C@H](C)[C@@H]9O[C@@H]%10CC(CO)O[C@@H]%10C[C@@H]9O8)C[C@H](C)[C@@H]7O6)C[C@H]5O[C@H]4[C@H](C)[C@H]3OC(=O)C[C@H]3CC[C@@H]4OC5[C@H]6O[C@]7(CC[C@H]8CC(=C)[C@H](CC[C@@H](C[C@H]1C)O2)O8)CC6O[C@@H]5[C@@H](O7)[C@H]4O3 (stereo not given in full) | > 1 | < 0.0001 | > 1 | > 1 | > 1 | 0.00332 | > 1 | – | > 1 | > 1 | – | – | – | – | – | – | – |
| O=C1CSC(c2cccc([N+](=O)[O-])c2)N1c1ccc(-n2c(-c3ccccc3)nc3ccccc3c2=O)cc1 (stereo not given) | > 100 | > 100 | > 100 | > 100 | > 100 | > 100 | > 100 | > 100 | > 100 | – | – | – | – | – | – | – | – |
| CC(C)/C(Cl)=N\OC(=O)Nc1cccc(Cl)c1 | 11 | – | 26.8 | > 86.1 | 18.4 | 26.6 | 35 | 28.6 | 4.7 | 32.5 | – | – | – | – | – | – | – |
| COc1cc2c(cc1OCCCC(=O)Nc1ccc3ccc4cccc5ccc1c3c45)N=C[C@@H]1CCCN1C2=O | < 0.01 | 3.07 | 0.104 | 1.74 | > 100 | – | – | – | 14.1 | – | < 0.01 | 1.61 | 0.0368 | < 0.01 | 0.044 | 0.19 | < 0.0167 |
| COC(=O)C1(C)C=CC(=O)C2(C)C1C(O)C1OC3CC(c4ccoc4)C(C)=C3C1(C)C2CC(=O)O (stereo not given) | > 100 | > 100 | > 100 | – | > 100 | > 100 | > 100 | > 100 | – | – | – | – | – | – | – | – | – |
| CNC(=O)CCC(NC(=O)OC(C)(C)C)C(=O)NC(Cc1ccc([N+](=O)[O-])cc1)C(=O)NCC(=O)NC (stereo not given) (Boc-Glu(NHMe)-[Phe(4-NO2)]-Gly-NHMe; configuration not given here) | > 100 | > 100 | – | > 100 | > 100 | > 100 | > 100 | > 100 | > 100 | > 100 | – | – | – | – | – | – | – |
| C=C1CCC([N+](=O)[O-])[C@](C)(N=O)CC[C@@H]2C1CC2(C)C (stereo not given in full) | > 100 | – | 46.2 | > 100 | > 100 | 28.6 | 59.1 | > 100 | 79.1 | – | – | – | – | – | – | – | – |
| CCN(CC)C(=O)C(C)n1cc(C)c(=O)[nH]c1=O (stereo not given) | > 100 | – | – | > 100 | > 100 | > 100 | > 100 | – | > 100 | > 100 | – | – | – | – | – | – | – |
| Cn1c(-c2cccc([N+](=O)[O-])c2)[n+](C)c2ccccc21 | > 100 | > 100 | > 100 | > 100 | > 100 | > 100 | > 100 | – | > 100 | > 100 | – | – | – | – | – | – | – |
